Series [1] can be described thus: Tissue levels (brain and plasma) after administration to mice. The note with it: 1 hour after administration of 10 mg/kg to mice.
Series [2] concerns CCl4-induced liver fibrosis. Put plainly: CCl4-induced liver fibrosis model in mice. The series is classed as in vivo, mouse. Particulars: for CCl4-induced increase in immunoreactive iNOS: liver. As to the method: CCl4-induced liver fibrosis was generated by intraperitoneal injection of CCL4 (1 ml/kg, diluted 1:10 corn oil), twice weekly for 8 weeks. […] Data represent mean±SEM from 7-8 mice per group.*P<0.05 relative to control. ^#indicates significant treatment effect (P<0.05) relative to CCl4-treated vehicle group.
Fibrosis results from excessive extracellular matrix deposition by myofibroblasts accompanying chronic inflammation and wound healing, and is a key pathogenic process in many organs, including kidneys, lung, and liver.

The nature of series [3]: In vivo metabolism in mouse, plasma LC-MS/MS. The note with it: 1 h after oral administration at 10 mg/kg in mice.
Another series concerns ZDF rats. The series is described as follows: Zucker diabetic fatty (ZDF) rat model of type 2 diabetes. In kind it is in vivo. Particulars: 10 mg/kg/day oral gavage, 7 days. The source says: The Zucker diabetic fatty (ZDF) rat is a commonly used animal model of type 2 diabetes with progressive β-cell loss resulting in extreme hyperglycemia. […] (Jourdan et al, Nature Med 2013, 19-(9):1132-1140).

A further series deals with DIO mice. Put plainly: Mice with diet-induced obesity (DIO), 14 days oral treatment. The series is classed as in vivo, mouse. On the procedure:
Data represent mean±SEM from 5-6 mice per group.*(P<0.05), indicate significant difference from […] diet control. ^# indicates significant treatment effect (P<0.05) relative to vehicle-treated HFD group.
Data represent mean±SEM from 5-6 mice per group. *(P<0.05), indicate significant difference from (STD) diet control. ^# indicates significant treatment effect (P<0.05) relative to vehicle-treated HFD group. […] Glucose tolerance and insulin sensitivity were determined on the last 2 days of treatment, using i.p. glucose tolerance and insulin sensitivity tests.

The target in another series is CB1 (Mus musculus, UniProt P47746).
A further series concerns recombinant human AMPK. The series is described as follows: Recombinant AMPK activity assay (Cyclex kit). In kind it is biochemical. An excerpt:
Guanides and biguanides, such as metformin, are effective as antidiabetic agents linked to their AMPK activating properties (Hardie et al., Chem Biol. 2012, […]; 1222-1236). Guanidine-containing analogs in certain embodiments were screened for activation of recombinant human AMPK, using an assay kit (Cyclex, Nagona, Japan), as illustrated in FIG. 8.
Activators of AMP-activated protein kinase (AMPK), such as guanidines of biguanides such as metformin are useful for the treatment of diabetes owing to their AMPK activating property (Hardie, et al., Chem & Biol 2012, 19(10); 1222-1236). Guanidine analogues of certain embodiments were screened for AMPK activation by using a recombinant AMPK activity assay.

The test system of the next series is liver fibrosis. Particulars: Teixeira-Clerc, Nature Med 2006; cited from earlier work.
Where [4] appears, read: 10 mg/kg/day orally for 4 weeks.
[5] abbreviates: DIO mice, 10 mg/kg/day, 14 days.

Read-outs that look alike come from different tables or passages of the source.

Data on three molecules can be found in patent US20190352268A1, “CANNABINOID RECEPTOR MEDIATING COMPOUNDS” (The USA, as represented by the Secretary, Department of …, priority 2015, published 2019).

CB1, sequence (P47746 whole entry): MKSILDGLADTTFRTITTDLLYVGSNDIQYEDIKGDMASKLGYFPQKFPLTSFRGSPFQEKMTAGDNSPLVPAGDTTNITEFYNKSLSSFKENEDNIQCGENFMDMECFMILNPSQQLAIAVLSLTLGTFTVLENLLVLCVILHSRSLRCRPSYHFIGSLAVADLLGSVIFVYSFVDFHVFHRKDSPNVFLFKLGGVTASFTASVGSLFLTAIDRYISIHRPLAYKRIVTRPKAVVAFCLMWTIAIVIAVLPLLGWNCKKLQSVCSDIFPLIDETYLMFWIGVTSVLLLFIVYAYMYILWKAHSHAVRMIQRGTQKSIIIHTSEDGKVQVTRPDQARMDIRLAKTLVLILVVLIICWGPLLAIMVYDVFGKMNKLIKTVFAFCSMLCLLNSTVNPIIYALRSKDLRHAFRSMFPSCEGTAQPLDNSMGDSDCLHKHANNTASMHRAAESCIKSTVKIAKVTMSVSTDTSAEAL

On to `CC(=N)N/C(=N\S(=O)(=O)c1ccc(Cl)cc1)N1C[C@H](c2ccccc2)C(c2ccc(Cl)cc2)=N1` [Compound 2E1], for which the “plasma levels, oral versus i.p. administration” value in series [1] is reported as “comparable after oral or i.p. administration”. Moreover, in series [2] (setting [4]), the “liver fibrosis / collagen deposition by Sirius Red and Masson's trichrome staining” value is given as “more effective than rimonabant”; the “CCl4-induced increase in immunoreactive iNOS” value was “dramatically attenuated”. Moreover, in series [2] (versus rimonabant), the “anti-fibrotic efficacy in liver fibrosis (overall)” value is reported as “higher anti-fibrotic efficacy than rimonabant”.
With `C/C(N)=N\C(=N/S(=O)(=O)c1ccc(Cl)cc1)N1CC(c2ccccc2)C(c2ccc(Cl)cc2)=N1` (racemic) [Compound 2, rac-N-(1-aminoethylidene)-3-(4-chlorophenyl)-N-((4-chlorophenyl)sulfonyl)-4-phenyl-4,5-dihydro-1H-pyrazole-1-carboximidamide], in series [3], the “in vivo metabolism, metabolite generation in plasma” value is “underwent in vivo metabolism to liberate the amidine moiety and a metabolite”. Further, in the series on ZDF rats, the plasma c-peptide result is “prevented” and the plasma insulin result is given as “prevented”. Moreover, the blood glucose entry in the series with ZDF rats (10 mg/kg/day) is “prevented the progressive increase”. In series [2] (setting [4]), the “liver fibrosis / collagen deposition by Sirius Red and Masson's trichrome staining” value is recorded as “more effective than rimonabant”; the “α-SMA, Procollagen-1 and Fibronectin-1 mRNA” value is recorded as “more effective than rimonabant”; the “CCl4-induced increase in immunoreactive iNOS” value was “attenuated”. In the series on DIO mice (setting [5]), the HFD-induced glucose intolerance result is reported as “abrogated”, the body weight entry was “reduced”, the food intake result was “reduced” and the “hepatic TG” value is reported as “reduced”. Also, in the series on DIO mice (setting [5]), the hyperinsulinemia result is “abrogated”, the hyperleptinemia entry is listed as “reduced” and the insulin resistance result is on record as “abrogated”. Moreover, the “insulin resistance (insulin sensitivity test)” value with DIO mice (DIO mice, last 2 days of treatment) is listed as “nearly completely normalized”. Also, the “glucose intolerance (i.p. glucose tolerance test)” value with DIO mice (DIO mice, last 2 days of treatment, i.p. glucose load 1.5 g/kg) is on record as “nearly completely normalized”. Further, the “In vivo Comments” value with DIO mice (mouse, in vivo) was “-anti- diabetic -anti- obesity”. In addition, the “Functional GTPγS binding CB1 Emax” value on CB1 is reported as -20 % basal.
In the case of `Cc1c(C(=O)NN2CCCCC2)nn(-c2ccc(Cl)cc2Cl)c1-c1ccc(Cl)cc1` [rimonabant], the “effect on AMPK activity” value with recombinant human AMPK and in the series with recombinant human AMPK (1 μM) was “no effect” throughout. The anti-fibrotic effect entry in the series on liver fibrosis is reported as “anti-fibrotic effect”.
